# Test system: mouse ES cells
# Test: Culture of mouse ES cells with NAC
# Assay type: cell-based
compound,measurement,setting,value
"CC(=O)N[C@@H](CS)C(=O)O [NAC, N-acetylcysteine]","% viable cells, in words",in the presence of NAC,not greatly affected
same,"Effect on mouse ES cells, in words",normal culture conditions and absence of BME,beneficial effect

# Reference: patent US6635802B1, “Nuclear transfer using cells cultured in serum starvation media containing apoptosis inhibitors” (The Texas A&M University System, priority 2000, dated 2003)
